IC50 and inhibition data for 22 compounds are collected here from patent US11597708B2, “Inhibitors of heat shock factors and uses thereof” (HSF Pharmaceuticals SA, priority 2016, dated 2023).

Counter-ions that a name gives are not always drawn. Like-named read-outs stand apart in the source and are kept apart here.

For this assay, the target named is T1, HSF1 (Homo sapiens, UniProt Q00613).
T1 construct: functionally linked to an hsp70b promoter and therefore controlled by endogenous HSF1; endogenous in cells; host or cells: HeLa cells / HeLa-derived cell line Z74
T1 sequence (Q00613 1-529): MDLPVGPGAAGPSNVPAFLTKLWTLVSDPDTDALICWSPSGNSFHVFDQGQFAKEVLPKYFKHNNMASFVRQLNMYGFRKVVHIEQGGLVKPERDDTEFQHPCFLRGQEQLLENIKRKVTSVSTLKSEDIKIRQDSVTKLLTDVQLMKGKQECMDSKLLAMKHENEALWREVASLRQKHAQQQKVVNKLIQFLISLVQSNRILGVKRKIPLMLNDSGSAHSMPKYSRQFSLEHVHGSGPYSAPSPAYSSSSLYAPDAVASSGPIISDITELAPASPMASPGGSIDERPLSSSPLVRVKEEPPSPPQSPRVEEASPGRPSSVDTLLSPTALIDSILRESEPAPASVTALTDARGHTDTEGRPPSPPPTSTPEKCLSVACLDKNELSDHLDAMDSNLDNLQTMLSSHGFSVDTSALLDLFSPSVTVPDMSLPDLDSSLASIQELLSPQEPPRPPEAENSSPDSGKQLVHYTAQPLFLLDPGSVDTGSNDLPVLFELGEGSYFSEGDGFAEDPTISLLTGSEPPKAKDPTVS
Put plainly: Z74 cell-based reporter assay: heat-induced RLuc expression controlled by endogenous HSF1. Particulars: for IC50: inhibition of HSF1 activity [RLuc]; for inhibition at 12.5 µM: read-out: Inhibition of HSF1 activity at 12.5 μM IHSF [RLuc] (%); for inhibition at 25 µM: read-out: Inhibition of HSF1 activity at 25 μM IHSF [RLuc] (%). The text has this:
For screening this sublibrary, a cell-based assay was developed. We opted for a cell-based assay, because a cell-free assay would have had to be a DNA-binding assay. Such an assay would have limited discovery to molecules capable of interfering with the DNA-binding function of HSF1. This was thought to be too narrow a focus, considering that three of the four cavities identified in the HSF1 DNA-binding domain are not near the DNA interaction region. A straightforward cell-based assay, in which a HSF1-responsive gene would be assayed, was considered likely to be over-inclusive. Compounds would be scored as hits that inhibit any factor that is involved in HSF1 activation or prevents HSF1 deactivation. These factors include protein kinases, activators of protein phosphatases, factors affecting HSF1 mRNA stability, HSP90, HDAC6, etc. For developing a more discriminating cell-based assay, advantage was taken of the modular nature of HSF1. […] The cell-based assay developed (see below for the particular format employed) compared transactivation by wild type HSF1 and chimeric HSF1 in cells exposed to an HSF1-activating heat treatment in the presence of a sublibrary compound. A compound was scored as a hit, if it inhibited the activity of wild type HSF1 but not of chimeric HSF1.
The cell-based assay made use of HeLa-derived cell line Z74 that stably contains a gene for chimeric transcription factor LexA-(human) HSF1 under the control of a CMV early promoter, a firefly luciferase (flue) gene driven by a promoter responsive to the latter chimeric transcription factor and a Renilla luciferase (rluc) gene functionally linked to an hsp70b promoter and therefore controlled by endogenous HSF1 (FIG. 1A). As is shown in FIGS. 1B & C, the reporter genes responded similarly to heat dose, i.e., their activation depended on both duration of heat exposure and temperature of the exposure. […] Depletion of HSF1 (and LexA-HSF1) by siRNA supported the notion that this stress regulation is mediated by HSF1 (and LexA-HSF1). Therefore, the Z74 line was well suited for use in a screening assay aimed at discovering molecules that inhibit heat-induced HSF1 activity through interaction with the transcription factor's DNA-binding domain.
The compounds of the afore-mentioned biased sublibrary were screened in cell line Z74 at 12.5 and 25 μM concentrations. Typically, Z74 cultures in 96-well plates were exposed to compound or vehicle for 2 h, heat-treated at 43.0° C. for 30 min, and incubated further for 6 h at 37° C. to allow for accumulation of the luciferases. RLuc and FLuc activities were determined, typically using the Dual-Glo® Luciferase Assay System (Promega Corp., Madison, Wis.), and reading luciferase light counts in a Wallac Microbeta Trilux-1450 Luminometer (PerkinElmer, Waltham, Mass.). IHSF 001 was one of two library compounds that inhibited RLuc expression but not FLuc expression in heat-treated Z74 cells (Table 1; FIG. 2A). Therefore, IHSF 001 is an inhibitor of HSF1 function that specifically acts through the HSF1 DNA-binding domain. […] A corroborating experiment utilized a cell line containing an hsp70b promoter-driven fluc gene. […] IHSF 001 is (E)-ethyl 4-oxo-4-(thiazol-2-ylamino)but-2-enoate. The compound can be obtained from commercial sources (e.g., AKE-PB-90340538, Akos).

Where [1] appears, read: Z74 cells, 12.5 μM IHSF, negative values marked *: compound enhanced rLuc activity.
The mark [2] stands for this setting: Z74 cells, 25 μM IHSF, 2 h exposure, 43° C. 30 min, 6 h at 37° C.

Turning to `O=C(/C=C/C1=NCCO1)Nc1nccs1` [IHSF 092, (E)-3-(4,5-Dihydro-oxazol-2-yl)-N-thiazol-2-yl-acrylamide], where the note is “Z74 cells”, the IC50 was 4.7 µM. Besides, the inhibition at 12.5 µM under setting [1] was determined as 90%. Further, the inhibition at 25 µM under setting [2] was 99%.

As to `CCOC(=O)/C=C/C(=O)N(CCN1CCOCC1)c1nccs1` [IHSF 101, (E)-3-[(2-Morpholin-4-yl-ethyl)-thiazol-2-yl-carbamoyl]-acrylic acid ethyl ester], where the note is “Z74 cells”, the IC50 was over 25 µM. Moreover, under setting [1], the inhibition at 12.5 µM was -30%. The inhibition at 25 µM under setting [2] came to 48%.

For `O=C(/C=C/c1ncccn1)Nc1nccs1` [IHSF 088, (E)-3-(Pyrimidin-2-yl)-N-(thiazol-2-yl)acrylamide], the inhibition at 12.5 µM under setting [1] worked out at 25%. The inhibition at 25 µM under setting [2] turned out to be 31%.

For the compound `COC(=O)/C=C/C(=O)Nc1nccs1` [IHSF 027, (E)-3-(Thiazol-2-ylcarbamoyl)-acrylic acid methyl ester], under setting [1], the inhibition at 12.5 µM amounted to 18%. Under setting [2], the inhibition at 25 µM came out at 42%.

For the compound `CCOC(=O)/C=C/C(=O)Nc1ncc(-c2ccccc2)s1` [IHSF 014, (E)-3-(5-Phenyl-thiazol-2-ylcarbamoyl)-acrylic acid ethyl ester], where the note is “Z74 cells”, it took 7.1 µM to reach half-maximal inhibition (IC50). Further, under setting [1], the inhibition at 12.5 µM was determined as 60%. In addition, the inhibition at 25 µM under setting [2] worked out at 89%.

`CCOC(=O)/C=C/C(=O)N(CCc1ccncc1)c1nccs1` [IHSF 099, (E)-3-[(2-Pyridin-4-yl-ethyl)-thiazol-2-yl-carbamoyl]-acrylic acid ethyl ester] had an IC50 (Z74 cells) of 18 µM. The inhibition at 12.5 µM under setting [1] was 17%. Moreover, the inhibition at 25 µM under setting [2] is 95%.

The compound `CCOC(=O)/C=C/C(=O)Nc1nc(-c2cccnc2)cs1` [IHSF 055, (E)-3-(4-Pyridin-3-yl-thiazol-2-ylcarbamoyl)-acrylic acid ethyl ester] yielded an IC50 (Z74 cells) of 18.7 µM. For the same compound, the inhibition at 12.5 µM under setting [1] came to 27%. Besides, under setting [2], the inhibition at 25 µM amounted to 74%.

With `CCOC(=O)/C=C/C(=O)Nc1ccn(C)n1` [IHSF 016, (E)-3-(1-Methyl-1H-pyrazol-3-ylcarbamoyl)-acrylic acid ethyl ester], the inhibition at 12.5 µM under setting [1] amounted to 0%. Further, the inhibition at 25 µM under setting [2] turned out to be 25%.

For `Cc1csc(NC(=O)/C=C/C(=O)N(C)C)n1` [IHSF 061, (E)-But-2-enedioic acid dimethyl-amide (4-methyl-thiazol-2-yl)-amide], the inhibition at 12.5 µM under setting [1] turned out to be 12%. Also, the inhibition at 25 µM under setting [2] was found to be 18%.

Turning to `CCOC(=O)/C=C/C(=O)Nc1nc(C2CC2)cs1` [IHSF 053, (E)-3-(4-Cyclopropyl-thiazol-2-ylcarbamoyl)-acrylic acid ethyl ester], the inhibition at 12.5 µM under setting [1] was 15%. Further, the inhibition at 25 µM under setting [2] is 29%.

As to `CCOC(=O)/C=C/C(=O)Nc1ccnc(-c2ccc(C)cc2)c1` [IHSF 081, (E)-3-(2-p-Tolyl-pyridin-4-ylcarbamoyl)-acrylic acid ethyl ester formic acid salt], the inhibition at 12.5 µM was 42% and the inhibition at 25 µM was determined as 65%.

In turn, `CCOC(=O)/C=C/C(=O)N(CCc1ccccn1)c1nccs1` [IHSF 112, (E)-3-[(2-Pyridin-2-yl-ethyl)-thiazol-2-yl-carbamoyl]-acrylic acid ethyl ester] yielded an IC50 (Z74 cells) of over 25 µM. For the same compound, under setting [1], the inhibition at 12.5 µM came out at 13%. The inhibition at 25 µM under setting [2] was found to be 26%.

As for `CCOC(=O)/C=C/C(=O)Nc1ccnc(N2CCOCC2)c1` [IHSF 077, (E)-3-(2-Morpholin-4-yl-pyridin-4-ylcarbamoyl)-acrylic acid ethyl ester formic acid salt], the inhibition at 12.5 µM amounted to 42% and the inhibition at 25 µM worked out at 67%.

`CCOC(=O)/C=C/C(=O)Nc1nc2ccccc2s1` [IHSF 010, (E)-3-(Benzothiazol-2-ylcarbamoyl)-acrylic acid ethyl ester]: under setting [1], the inhibition at 12.5 µM was determined as 56%. Further, under setting [2], the inhibition at 25 µM was determined as 56%.

Consider `O=C(/C=C/c1ncno1)Nc1nccs1` [IHSF 089, (E)-3-(1,2,4-Oxadiazol-5-yl)-N-(thiazol-2-yl)acrylamide], for which, where the note is “Z74 cells”, the IC50 came out at 17.9 µM. Moreover, under setting [1], the inhibition at 12.5 µM amounted to 41%. Further, the inhibition at 25 µM under setting [2] stood at 61%.

`CCOC(=O)/C=C/C(=O)Nc1nncs1` [IHSF 018, (E)-3-([1,3,4]Thiadiazol-2-ylcarbamoyl)-acrylic acid ethyl ester] gave an IC50 (Z74 cells) of 23.6 µM. In addition, the inhibition at 12.5 µM under setting [1] came to 20%. Moreover, the inhibition at 25 µM under setting [2] is 53%.

Regarding `CCCCOC(=O)/C=C/C(=O)Nc1nccs1` [IHSF 042, (E)-3-(Thiazol-2-ylcarbamoyl)-acrylic acid butyl ester], the inhibition at 12.5 µM under setting [1] worked out at 1%. Moreover, the inhibition at 25 µM under setting [2] turned out to be 52%.

For `CCOC(=O)/C=C/C(=O)Nc1ccncc1` [IHSF 020, (E)-3-(Pyridin-4-ylcarbamoyl)-acrylic acid ethyl ester], the IC50 (Z74 cells) stood at 23.5 µM. In addition, the inhibition at 12.5 µM under setting [1] turned out to be 30%. Further, the inhibition at 25 µM under setting [2] worked out at 53%.

For `CCOC(=O)/C=C/C(=O)Nc1nc(C(N)=O)c(-c2ccccc2)s1` [IHSF 109, (E)-3-(4-Carbamoyl-5-phenyl-thiazol-2-ylcarbamoyl)-acrylic acid ethyl ester], the IC50 (Z74 cells) worked out at 11.2 µM. Besides, the inhibition at 12.5 µM under setting [1] turned out to be 53%. Further, the inhibition at 25 µM under setting [2] stood at 88%.

`CCOC(=O)/C=C/C(=O)Nc1nc(-c2ccccc2)cs1` [IHSF 012, (E)-3-(4-Phenyl-thiazol-2-ylcarbamoyl)-acrylic acid ethyl ester] gave an IC50 (Z74 cells) of 11.3 µM. In addition, the inhibition at 12.5 µM under setting [1] was found to be 68%. Moreover, the inhibition at 25 µM under setting [2] came out at 86%.

As to `CCOC(=O)/C=C/C(=O)Nc1ccnc(-c2cccnc2)c1` [IHSF 086, (E)-3-([2,3′]Bipyridmyl-4-ylcarbamoyl)-acrylic acid ethyl ester], under setting [1], the inhibition at 12.5 µM is 47%. The inhibition at 25 µM under setting [2] amounted to 78%.

Regarding `CCOC(=O)/C=C/C(=O)N(CCc1cn(C)cn1)c1nccs1` [IHSF 108], 19.6 µM corresponded to half-maximal inhibition (Z74 cells) (IC50). Further, the inhibition at 12.5 µM under setting [1] was -6%. Further, the inhibition at 25 µM under setting [2] amounted to 89%.
